Data published in patent publication US10441588B2, “Methods and compositions for treating bacterial infection” (Curators of the University of Missouri, priority 2012, dated 2019).
Structures can show the parent of a compound that is named as a salt. Where two headings read alike, the source gives them in different places.

Legend:
S. aureus biofilm = S. aureus biofilm inhibition, optical density, test/control; assay type: cell-based, Staphylococcus aureus; details: Staphylococcus aureus, growth of biofilm test/control by optical density
S. aureus = S. aureus growth inhibition, optical density, test/control; assay type: cell-based, Staphylococcus aureus; details: Staphylococcus aureus, growth of bacteria test/control by optical density
[1] = 50 μM, read-out: S. aureus Biofilm Inhibition 50 μM vs. (−) Control
[2] = 5 μM, read-out: S. aureus Biofilm Inhibition 5 μM vs. (−) Control

Row | Compound | activity at 100 µM (S. aureus biofilm) | activity at 100 µM (S. aureus) | activity at 50 µM (S. aureus biofilm; [1]) | activity at 5 µM (S. aureus biofilm; [2]) | also measured
1 | C=CCn1c(SCc2cccc(OC)c2)nc2c(c1=O)C1(CCCCC1)Cc1ccccc1-2 [CCG-102485] | 49.5% | 114% |  |  | 
2 | C=CCn1c(SCc2ccc(NC(C)=O)cc2)nc2c(c1=O)C1(CCCCC1)Cc1ccccc1-2 [CCG-102491] | 75% | 84.8% |  |  | 
3 | C=CCn1c(SCCOC)nc2c(c1=O)C1(CCCCC1)Cc1ccccc1-2 [CCG-102493] | 66% | 72.1% |  |  | 
4 | C=CCn1c(SCCN(C)C)nc2c(c1=O)C1(CCCCC1)Cc1ccccc1-2 [CCG-102495] | 78.9% | 93% |  |  | 
5 | C=CCn1c(SC)nc2c(c1=O)C1(CCCCC1)Cc1ccccc1-2 [CCG-102620] | 76.5% | 95.3% |  |  | 
6 | C=CCn1c(OCC)nc2c(c1=O)C1(CCCCC1)Cc1ccccc1-2 [CCG-102622] | 68.6% | 77.7% |  |  | 
7 | C=CCn1c(SCc2ccccn2)nc2c(c1=O)C(C)(C)Cc1ccccc1-2 [CCG-203039] | 71% | 95.9% |  |  | 
8 | C=CCn1c(SCCO)nc2c(c1=O)C(C)(C)Cc1ccccc1-2 [CCG-203041] | 47.7% | 89.7% |  |  | 
9 | C=CCn1c(SCCOC)nc2c(c1=O)CC(C)c1ccccc1-2 (stereo not shown) [CCG-203574] | 46.5% | 73.8% |  |  | 
10 | CCn1c(SCCOC)nc2c(c1=O)C(C)(C)Cc1ccccc1-2 [CCG-203598] | 61% | 85.5% |  |  | 
11 | C=CCn1c(SCC)nc2c(c1=O)C(C)(C)Cc1ccc(OC)cc1-2 [CCG-203625] |  |  |  |  | activity at 10 µM (S. aureus biofilm): 51.3%
12 | COCCSc1nc(OCC2OCCO2)c2c(n1)-c1ccccc1CC2(C)C [CCG-203627] | 49.6% | 80.6% |  |  | 
13 | C=CCn1c(SCC)nc2c(c1=O)C(C)(C)Cc1c(OC)cccc1-2 [CCG-203629] | 35.1% | 66.7% |  |  | 
14 | C=CCn1c(SCC)nc2c(c1=O)C(C)(C)Cc1c(O)cccc1-2 [CCG-203631] | 31.1% | 76.7% |  |  | 
15 | C=CCn1c(SCC)nc2c(c1=O)C(C)(C)Cc1c(OCCOC)cccc1-2 [CCG-203633] | 54% | 76.2% |  |  | 
16 | CCSc1nc2c(c(=O)n1CCOC)C(C)(C)Cc1ccccc1-2 [CCG-203802, 2-(ethylthio)-3-(2-methoxyethyl)-5,5-dimethyl-5,6-dihydrobenzo[h]quinazolin-4(3H)-one] | 55.7% | 67.7% |  |  | 

Row | Compound | activity at 100 µM (S. aureus biofilm) | activity at 100 µM (S. aureus) | activity at 50 µM (S. aureus biofilm; [1]) | activity at 5 µM (S. aureus biofilm; [2]) | also measured
17 | C=CCn1c(OCC)nc2c(c1=O)C(C)(C)Cc1ccccc1-2 [CCG-203803] | 76.8% | 81.9% |  |  | 
18 | C=CCn1c(SCC)nc2c(c1=O)C(C)(C)Cc1cc(OCC(=O)O)ccc1-2 [CCG-205434] | 32.5% |  |  |  | 
19 | C=CCn1c(SCCOC)nc2c(c1=O)C1(CCN(C(=O)OCC)CC1)Cc1ccccc1-2 [CCG-206233, Ethyl 3-allyl-2-((2-methoxyethyl)thio)-4-oxo-4,6-dihydro-3H-spiro[benzo[h]quinazoline-5,4′-piperidine]-1′-carboxylate] |  |  | 59.4% |  | 
20 | C=CCOc1nc(SCC)nc2c1C(C)(C)Cc1ccc(OC)cc1-2 [CCG-206358] | 70% |  |  |  | activity at 10 µM (S. aureus biofilm): 55.7%
21 | C=CCOc1nc(SCCOC)nc2c1C1(CCN(C(=O)CCCC)CC1)Cc1cc(OC)ccc1-2 [CCG-208863, 1-(4-(allyloxy)-8-methoxy-2-((2-methoxyethyl)thio)-6H-spiro[benzo[h]quinazoline-5,4′-piperidin]-1′-yl)pentan-1-one] |  |  | 68.6% | 72.1% | 
22 | C=CCn1c(SCCOC)nc2c(c1=O)C1(CCN(C(=O)OC(C)(C)C)C1)Cc1cc(OC)ccc1-2 (stereo not shown) [CCG-208864, tert-butyl 3-allyl-8-methoxy-2-((2-methoxyethyl)thio)-4-oxo-4,6-dihydro-3H-spiro[benzo[h]quinazoline-5,3′-pyrrolidine]-1′-carboxylate] |  |  | 49.1% | 49.5% | 
23 | C=CCn1c(SCCOC)nc2c(c1=O)C1(CCNC1)Cc1cc(OC)ccc1-2 (stereo not shown) [CCG-208865, 3-allyl-8-methoxy-2-((2-methoxyethyl)thio)-3H-spiro[benzo[h]quinazoline-5,3′-pyrrolidine]-4(6H)-one hydrochloride] |  |  |  |  | activity at 5 µM (S. aureus biofilm; read-out: S. aureus Biofilm Inhibition 5 μM vs. (−) Control, 5 μM): 80.3%; activity at 50 µM (S. aureus biofilm; read-out: S. aureus Biofilm Inhibition 50 μM vs. (−) Control, 50 μM): 65.2%
24 | C=CCn1c(SCCOC)nc2c(c1=O)C1(CCN(C)CC1)Cc1cc(OC)ccc1-2 [CCG-208981, 3-allyl-8-methoxy-2-((2-methoxyethyl)thio)-1′-methyl-3H-spiro[benzo[h]quinazoline-5,4′-piperidin]-4(6H)-one] |  |  | 70.6% | 88.5% | 
25 | CCSc1nc(OC)c2c(n1)-c1cc(OC)ccc1CC2(C)C [CCG-211793, 2-(ethylthio)-4,9-dimethoxy-5,5-dimethyl-5,6-dihydrobenzo[h]quinazoline] |  |  | 72.2% | 122% | 
26 | COc1ccc2c(c1)CC1(CCN(C(=O)OC(C)(C)C)CC1)c1c(OC)nc(SCC#N)nc1-2 [CCG-211810, tert-butyl 2-((cyanomethyl)thio)-4,8-dimethoxy-6H-spiro[benzo[h]quinazoline-5,4′-piperidine]-1′-carboxylate] |  |  | 75% | 68.2% | 
27 | COc1ccc2c(c1)CC1(CCN(C(=O)OC(C)(C)C)CC1)c1c-2nc(SCC#N)n(C)c1=O [CCG-211811, tert-butyl 2-((cyanomethyl)thio)-8-methoxy-3-methyl-4-oxo-4,6-dihydro-3H-spiro[benzo[h]quinazoline-5,4′-piperidine]-1′-carboxylate] |  |  | 70.2% | 67.8% | 
28 | COc1ccc2c(c1)CC1(CCN(C(=O)OC(C)(C)C)CC1)c1c(OCC#N)nc(SCC#N)nc1-2 [CCG-211812, tert-butyl 4-(cyanomethoxy)-2-((cyanomethyl)thio)-8-methoxy-6H-spiro[benzo[h]quinazoline-5,4′-piperidine]-1′-carboxylate] |  |  | 75% | 75.2% | 
29 | C=CCn1c(SCCOC)nc2c(c1=O)C1(CCN(C(=O)NCC(=O)OCC)CC1)Cc1cc(OC)ccc1-2 [CCG-211972, ethyl (3-allyl-8-methoxy-2-((2-methoxyethyl)thio)-4-oxo-4,6-dihydro-3H-spiro[benzo[h]quinazoline-5,4′-piperidine]-1′-carbonyl)glycinate] |  |  | 68% | 125% | 
30 | C=CCOc1nc(SCC#N)nc2c1C(C)(C)Cc1ccc(OC)cc1-2 [CCG-212010, 2-((4-(allyloxy)-9-methoxy-5,5-dimethyl-5,6-dihydrobenzo[h]quinazolin-2-yl)thio)acetonitrile] |  |  | 35% | 55% | 
31 | COc1ccc2c(c1)-c1nc(SCC#N)nc(OCC#N)c1C(C)(C)C2 [CCG-212011, 2-((4-(cyanomethoxy)-9-methoxy-5,5-dimethyl-5,6-dihydrobenzo[h]quinazolin-2-yl)thio)acetonitrile] |  |  | 29% | 48% | 
32 | COc1ccc2c(c1)-c1nc(SCC#N)n(CC#N)c(=O)c1C(C)(C)C2 [CCG-212012, 2-((3-(cyanomethyl)-9-methoxy-5,5-dimethyl-4-oxo-3,4,5,6-tetrahydrobenzo[h]quinazolin-2-yl)thio)acetonitrile] |  |  | 27% | 55% | 
